Results reported in PubChem BioAssay AID248 (DTP/NCI, 2004).
Inconclusive results and toxic doses are left out.

Test system: L1210 leukemia ip in BDF1 mice, survival T/C
Test: NCI In Vivo Anticancer Drug Screen. Data for tumor model L1210 Leukemia (intraperitoneal) in B6D2F1 (BDF1) mice
Conditions: endpoint: mean survival time, higher = longer survival
Summary of the method: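 Transplantable tumor model; survival measured in treated vs vehicle control mice. Value = treated/control.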

[1] = dose: 100.0 mg/kg/injection, schedule: Q01DX001 (ip), vehicle: carboxymethylcellulose (CMC)
[2] = dose: 100.0 mg/kg/injection, schedule: Q04DX003 (ip), vehicle: saline with Tween-80
[3] = dose: 200.0 mg/kg/injection, schedule: Q01DX001 (ip), vehicle: carboxymethylcellulose (CMC)
[4] = dose: 400.0 mg/kg/injection, schedule: Q01DX001 (ip), vehicle: carboxymethylcellulose (CMC)

## COc1cc2c3c(c4cc(OC)c(OC)cc4c2cc1OC)CN1CCC[C@H]1C3
dose: 4.0 mg/kg/injection, schedule: Q01DX015 (ip), vehicle: water
  T/C: 100 % of control
dose: 6.0 mg/kg/injection, schedule: Q01DX015 (ip), vehicle: water
  T/C: 100 % of control
dose: 6.25 mg/kg/injection, schedule: Q01DX015 (ip), vehicle: water
  T/C: 112 % of control
dose: 8.0 mg/kg/injection, schedule: Q01DX Z (ip), vehicle: water
  T/C: 107 % of control
dose: 9.0 mg/kg/injection, schedule: Q01DX015 (ip), vehicle: water
  T/C: 112 % of control
dose: 12.0 mg/kg/injection, schedule: Q01DX Z (ip), vehicle: water
  T/C: 100 % of control
dose: 14.0 mg/kg/injection, schedule: Q01DX015 (ip), vehicle: water
  T/C: 117 % of control
dose: 15.0 mg/kg/injection, schedule: Q02DX Z (ip), vehicle: water
  T/C: 108 % of control
dose: 25.0 mg/kg/injection, schedule: Q01DX015 (ip), vehicle: water
  T/C: 98 % of control
dose: 30.0 mg/kg/injection, schedule: Q02DX Z (ip), vehicle: water
  T/C: 150 % of control
dose: 250.0 mg/kg/injection, schedule: Q01DX Z (ip), vehicle: saline
  T/C: 154 % of control

## O=C(O)c1ccc(Cl)nc1
dose: 50.0 mg/kg/injection, schedule: Q01DX001 (ip), vehicle: carboxymethylcellulose (CMC)
  T/C: 97 % of control
[1]
  T/C: 94 % of control
[2]
  T/C: 104 % of control
[3]
  T/C: 92 % of control
dose: 200.0 mg/kg/injection, schedule: Q04DX003 (ip), vehicle: saline with Tween-80
  T/C: 103 % of control
[4]
  T/C: 94 % of control
dose: 400.0 mg/kg/injection, schedule: Q04DX003 (ip), vehicle: saline with Tween-80
  T/C: 104 % of control

## OB(O)c1ccc(F)cc1
dose: 100.0 mg/kg/injection, schedule: Q04DX003 (ip), vehicle: acetone
  T/C: 101 % of control
dose: 200.0 mg/kg/injection, schedule: Q04DX003 (ip), vehicle: acetone
  T/C: 98 % of control
dose: 400.0 mg/kg/injection, schedule: Q04DX003 (ip), vehicle: acetone
  T/C: 97 % of control

## COC(=O)c1cc(C)n(C)c(=O)c1CNC(=O)c1ccccc1
dose: 100.0 mg/kg/injection, schedule: Q01DX009 (ip), vehicle: saline
  T/C: 97 % of control
dose: 100.0 mg/kg/injection, schedule: Q04DX003 (ip), vehicle: saline
  T/C: 107 % of control
dose: 200.0 mg/kg/injection, schedule: Q01DX009 (ip), vehicle: saline
  T/C: 96 % of control
dose: 200.0 mg/kg/injection, schedule: Q04DX003 (ip), vehicle: saline
  T/C: 97 % of control
dose: 400.0 mg/kg/injection, schedule: Q01DX009 (ip), vehicle: saline
  T/C: 97 % of control
dose: 400.0 mg/kg/injection, schedule: Q04DX003 (ip), vehicle: saline
  T/C: 91 % of control

## COC(=O)c1ccc[n+](CCc2ccc(OC)c(OC)c2)c1
dose: 75.0 mg/kg/injection, schedule: Q01DX001 (ip), vehicle: saline
  T/C: 111 % of control

## N#CC1(C#N)OC12CCS(=O)(=O)c1ccccc12 (stereo not drawn)
dose: 100.0 mg/kg/injection, schedule: Q01DX001 (ip), vehicle: saline
  T/C: 88 % of control
dose: 200.0 mg/kg/injection, schedule: Q01DX001 (ip), vehicle: saline
  T/C: 95 % of control
dose: 400.0 mg/kg/injection, schedule: Q01DX001 (ip), vehicle: saline
  T/C: 101 % of control

## COc1ccc(C(c2ccc(Cl)cc2)N2CCNCC2)cc1 (stereo not drawn)
dose: 25.0 mg/kg/injection, schedule: Q01DX009 (ip), vehicle: saline with Tween-80
  T/C: 98 % of control
dose: 50.0 mg/kg/injection, schedule: Q01DX009 (ip), vehicle: saline with Tween-80
  T/C: 96 % of control
dose: 100.0 mg/kg/injection, schedule: Q01DX009 (ip), vehicle: saline with Tween-80
  T/C: 96 % of control
[2]
  T/C: 102 % of control

## C=CCc1cc(CN(CCO)Cc2cc(CC=C)cc(OC)c2O)c(O)c(OC)c1
dose: 12.5 mg/kg/injection, schedule: Q04DX003 (ip), vehicle: Klucel (hydroxypropylcellulose) (HPC)
  T/C: 95 % of control
dose: 25.0 mg/kg/injection, schedule: Q04DX003 (ip), vehicle: Klucel (hydroxypropylcellulose) (HPC)
  T/C: 101 % of control
dose: 50.0 mg/kg/injection, schedule: Q04DX003 (ip), vehicle: Klucel (hydroxypropylcellulose) (HPC)
  T/C: 95 % of control

## Cc1nc2[nH][nH]c(=O)c2nc1C
dose: 50.0 mg/kg/injection, schedule: Q01DX009 (ip), vehicle: Klucel (hydroxypropylcellulose) (HPC)
  T/C: 94 % of control
dose: 100.0 mg/kg/injection, schedule: Q01DX009 (ip), vehicle: Klucel (hydroxypropylcellulose) (HPC)
  T/C: 100 % of control
dose: 100.0 mg/kg/injection, schedule: Q04DX003 (ip), vehicle: Klucel (hydroxypropylcellulose) (HPC)
  T/C: 97 % of control
dose: 200.0 mg/kg/injection, schedule: Q01DX009 (ip), vehicle: Klucel (hydroxypropylcellulose) (HPC)
  T/C: 94 % of control
dose: 200.0 mg/kg/injection, schedule: Q04DX003 (ip), vehicle: Klucel (hydroxypropylcellulose) (HPC)
  T/C: 105 % of control
dose: 400.0 mg/kg/injection, schedule: Q04DX003 (ip), vehicle: Klucel (hydroxypropylcellulose) (HPC)
  T/C: 102 % of control

## CCCCNC(=O)NC1CC(OC2CC(O)(C(C)=O)Cc3c(O)c4c(c(O)c32)C(=O)c2c(OC)cccc2C4=O)OC(C)C1O (stereo not drawn)
dose: 1.0 mg/kg/injection, schedule: Q04DX003 (ip), vehicle: water
  T/C: 104 % of control
dose: 2.0 mg/kg/injection, schedule: Q04DX003 (ip), vehicle: water
  T/C: 97 % of control
dose: 4.0 mg/kg/injection, schedule: Q04DX003 (ip), vehicle: water
  T/C: 98 % of control
dose: 8.0 mg/kg/injection, schedule: Q04DX003 (ip), vehicle: water
  T/C: 98 % of control
dose: 16.0 mg/kg/injection, schedule: Q04DX003 (ip), vehicle: water
  T/C: 94 % of control
dose: 32.0 mg/kg/injection, schedule: Q04DX003 (ip), vehicle: water
  T/C: 101 % of control

## CC(=O)OCc1ccc(OC(C)=O)cn1
[1]
  T/C: 100 % of control
[3]
  T/C: 103 % of control
[4]
  T/C: 94 % of control
